In brackets after ≈: the same amount, converted by molar mass. Activity calls are given as the source filed them. The rule behind the calls is not given here.
Tests used:
Escherichia coli [1] = assay: Eradication of biofilm in Escherichia coli ATCC 25922 assessed as biofilm viability at 3.13 ug/ml measured after 24 hrs by crystal violet staining assay; assay type: functional; settings: dose 3.13 µg/ml
Escherichia coli [2] = assay: Antibacterial activity against Escherichia coli […] assessed as inhibition of visible growth measured after 18 to 24 hrs in presence of 175.5 ug/ml K+ by broth dilution method; assay type: functional; settings: time 18-24 hrs
[3] = Selectivity ratio, HC50 for hemolytic activity in rabbit RBC to MIC for antibacterial activity against Klebsiella pneumoniae ATCC 10031; assay type: toxicity; settings: rabbit red blood cells
Staphylococcus aureus [4] = assay: Inhibition of biofilm formation Staphylococcus aureus ATCC 29213 assessed as decrease in biofilm formation at 0.78 ug/ml measured after 24 hrs by crystal violet staining assay; assay type: functional
[5] = Haemolytic activity in rabbit red blood cells incubated for 60 mins by k multi-mode reader relative to control; assay type: toxicity, cell-based, Oryctolagus cuniculus, Erythrocyte
[6] = Selectivity ratio, HC50 for hemolytic activity in rabbit RBC to MIC for antibacterial activity against methicillin-resistant Staphylococcus aureus NCTC 10442; assay type: toxicity; settings: rabbit red blood cells
Escherichia coli [7] = assay: Antibacterial activity against Escherichia coli […] assessed as inhibition of visible growth measured after 18 to 24 hrs in presence of 3220 ug/ml Na+ by broth dilution method; assay type: functional; settings: time 18-24 hrs
Staphylococcus aureus [8] = assay: Antibacterial activity against Staphylococcus aureus ATCC 29213 assessed as reduction in bacterial load at 8 time of MIC measured after 8 hrs by time kill assay; assay type: functional
Klebsiella pneumoniae [9] = assay: Antibacterial activity against Klebsiella pneumoniae ATCC 10031 assessed as inhibition of visible growth measured after 18 to 24 hrs in presence of 24.3 ug/ml Mg2+ by broth dilution method; assay type: functional; settings: time 18-24 hrs
Escherichia coli [10] = assay: Antibacterial activity against Escherichia coli […] assessed as inhibition of visible growth measured after 18 to 24 hrs in presence of 24.3 ug/ml Mg2+ by broth dilution method; assay type: functional; settings: time 18-24 hrs
Staphylococcus aureus [11] = assay: Eradication of biofilm in Staphylococcus aureus ATCC 29213 assessed as biofilm viability at […] ug/ml measured after 24 hrs by crystal violet staining assay; assay type: functional; settings: dose […] microg/ml, 1.56 ug/mL
Staphylococcus aureus [12] = assay: Inhibition of biofilm formation Staphylococcus aureus ATCC 29213 assessed as decrease in biofilm formation at 0.10 ug/ml measured after 24 hrs by crystal violet staining assay; assay type: functional
Staphylococcus aureus [13] = assay: Displacement of BODIPY-TR-cadaverin from Staphylococcus aureus lipoteichoic acid at MIC concentration incubated for 30 mins by fluorescence based analysis
Staphylococcus aureus [14] = assay: Antibacterial activity against methicillin-resistant Staphylococcus aureus N315 assessed as inhibition of visible growth measured after 18 to 24 hrs in presence of 175.5 ug/ml K+ by broth dilution method; assay type: functional; settings: time 18-24 hrs
Staphylococcus aureus [15] = assay: Inhibition of biofilm formation Staphylococcus aureus ATCC 29213 assessed as decrease in biofilm formation at 0.39 ug/ml measured after 24 hrs by crystal violet staining assay; assay type: functional
Escherichia coli [16] = assay: Antibacterial activity against Escherichia coli ATCC 25922 assessed as fold increase in MIC measured after 18 to 24 hrs in presence of 512 ug/ml LTA/LPS by broth dilution method; assay type: functional; settings: time 18-24 hrs
Staphylococcus aureus [17] = assay: Inhibition of biofilm formation Staphylococcus aureus ATCC 29213 assessed as decrease in biofilm formation at 0.20 ug/ml measured after 24 hrs by crystal violet staining assay; assay type: functional
Escherichia coli [18] = assay: Inhibition of biofilm formation Escherichia coli ATCC 25922 assessed as decrease in biofilm formation at 0.39 ug/ml measured after 24 hrs by crystal violet staining assay; assay type: functional
Staphylococcus aureus [19] = assay: Antibacterial activity against methicillin-resistant Staphylococcus aureus NCTC 10442 assessed as inhibition of visible growth measured after 18 to 24 hrs by broth dilution method; assay type: functional; settings: time 18-24 hrs
Escherichia coli [20] = assay: Inhibition of biofilm formation Escherichia coli ATCC 25922 assessed as decrease in biofilm formation at 0.78 ug/ml measured after 24 hrs by crystal violet staining assay; assay type: functional
Escherichia coli [21] = assay: Drug resistance development in Escherichia coli ATCC 25922 assessed as fold change in MIC measured after 20 passages; assay type: functional
Escherichia coli [22] = assay: Eradication of biofilm in Escherichia coli ATCC 25922 assessed as biofilm viability at 0.78 ug/ml measured after 24 hrs by crystal violet staining assay; assay type: functional; settings: dose 0.78 µg/ml
Klebsiella pneumoniae [23] = assay: Antibacterial activity against Klebsiella pneumoniae ATCC 14581 assessed as inhibition of visible growth measured after 18 to 24 hrs by broth dilution method; assay type: functional; settings: time 18-24 hrs
Staphylococcus aureus [24] = assay: Antibacterial activity against Staphylococcus aureus ATCC 29213 assessed as inhibition of visible growth measured after 18 to 24 hrs in presence of 24.3 ug/ml Mg2+ by broth dilution method; assay type: functional; settings: time 18-24 hrs
[25] = Selectivity ratio, HC50 for hemolytic activity in rabbit RBC to MIC for antibacterial activity against Staphylococcus aureus ATCC 29213; assay type: toxicity; settings: rabbit red blood cells
[26] = Selectivity ratio, HC50 for hemolytic activity in rabbit RBC to MIC for antibacterial activity against methicillin-resistant Staphylococcus aureus N315; assay type: toxicity; settings: rabbit red blood cells
Staphylococcus aureus [27] = assay: Antibacterial activity against methicillin-resistant Staphylococcus aureus N315 assessed as inhibition of visible growth measured after 18 to 24 hrs in presence of 3220 ug/ml Na+ by broth dilution method; assay type: functional; settings: time 18-24 hrs
[28] = Selectivity ratio, HC50 for hemolytic activity in rabbit RBC to MIC for antibacterial activity against Pseudomonas aeruginosa ATCC 9027; assay type: toxicity; settings: rabbit red blood cells
Staphylococcus aureus [29] = assay: Antibacterial activity against methicillin-resistant Staphylococcus aureus NCTC 10442 assessed as inhibition of visible growth measured after 18 to 24 hrs in presence of 24.3 ug/ml Mg2+ by broth dilution method; assay type: functional; settings: time 18-24 hrs
Klebsiella pneumoniae [30] = assay: Antibacterial activity against Klebsiella pneumoniae ATCC 10031 assessed as inhibition of visible growth measured after 18 to 24 hrs in presence of 3220 ug/ml Na+ by broth dilution method; assay type: functional; settings: time 18-24 hrs
Staphylococcus aureus [31] = assay: Antibacterial activity against methicillin-resistant Staphylococcus aureus N315 assessed as inhibition of visible growth measured after 18 to 24 hrs in presence of 24.3 ug/ml Mg2+ by broth dilution method; assay type: functional; settings: time 18-24 hrs
Escherichia coli [32] = assay: Eradication of biofilm in Escherichia coli ATCC 25922 assessed as biofilm viability at 12.5 ug/ml measured after 24 hrs by crystal violet staining assay; assay type: functional; settings: dose 12.5 µg/ml
Staphylococcus aureus [33] = assay: Antibacterial activity against methicillin-resistant Staphylococcus aureus NCTC 10442 assessed as inhibition of visible growth measured after 18 to 24 hrs in presence of 100 ug/ml Ca2+ by broth dilution method; assay type: functional; settings: time 18-24 hrs
Staphylococcus aureus [34] = assay: Antibacterial activity against Staphylococcus aureus ATCC 29213 assessed as inhibition of visible growth measured after 18 to 24 hrs in presence of 100 ug/ml Ca2+ by broth dilution method; assay type: functional; settings: time 18-24 hrs
Escherichia coli [35] = assay: Antibacterial activity against Escherichia coli […] assessed as inhibition of visible growth measured after 18 to 24 hrs in presence of 100 ug/ml Ca2+ by broth dilution method; assay type: functional; settings: time 18-24 hrs
Cell membrane = assay: Induction of membrane depolarization in Escherichia coli ATCC 25922 assessed as increase in fluorescence intensity at 4 to 8 times MIC measured for 60 mins by DiSC3(5) dye based fluorescence method; assay type: subcellular

CCCCCCCCC(=O)NCc1ccc(OCCCCCCNC(=N)N)c(OCCCCCCNC(=N)N)c1 showed an Activity (Escherichia coli [1]) of 38.07%, an MIC (Escherichia coli [2]) of 1.56 µg/mL and a selectivity ratio [3] of 21.6. It also gave an inhibition at 0.78 µg/mL (Staphylococcus aureus [4]) of 99.7%, an HC5 ([5]; erythrocyte, 1 h) of 64.3 µg/mL and an HC50 at 1 h ([5]; rabbit red blood cells) of 135 µg/mL. For the same compound, the selectivity ratio [6] was 173, the MIC (Escherichia coli [7]) was 1.56 µg/mL and the Activity (Staphylococcus aureus [8]) was 3.59 log10CFU/ml. It also gave an MIC (Klebsiella pneumoniae [9]) of 1.56 µg/mL, an MIC (Escherichia coli [10]) of 1.56 µg/mL and an Activity (Staphylococcus aureus [11]) of 36.07%. For the same compound, the inhibition at 0.1 µg/mL (Staphylococcus aureus [12]) was 34.1%, the Activity (Staphylococcus aureus [13]) was 10.2% and the MIC (Staphylococcus aureus [14]) was 0.39 µg/mL. For the same compound, the inhibition at 0.39 µg/mL (Staphylococcus aureus [15]) was 97.8%, the “fold change (FC)” value (Escherichia coli [16]) was 16 and the inhibition at 0.2 µg/mL (Staphylococcus aureus [17]) was 62.3%. It also gave an inhibition at 0.39 µg/mL (Escherichia coli [18]) of 85.1%, an MIC (Staphylococcus aureus [19]) of 0.39 µg/mL (≈ 0.694 µM) and an inhibition at 0.78 µg/mL (Escherichia coli [20]) of 88.9%. For the same compound, the “fold change (FC)” value (Escherichia coli [21]) was less than 4, the Activity (Escherichia coli [22]) was 90.23% and the MIC (Klebsiella pneumoniae [23]) was 1.56 µg/mL (≈ 2.78 µM). It also gave an MIC (Staphylococcus aureus [24]) of 0.39 µg/mL, a selectivity ratio [25] of 173 and a selectivity ratio [26] of 173. It also gave an MIC (Staphylococcus aureus [27]) of 0.39 µg/mL, a selectivity ratio [28] of 21.6 and an MIC (Staphylococcus aureus [29]) of 0.39 µg/mL. The MIC (Klebsiella pneumoniae [30]) was 1.56 µg/mL, the MIC (Staphylococcus aureus [31]) was 0.39 µg/mL and the Activity (Escherichia coli [32]) was 15.04%. It also gave an MIC (Staphylococcus aureus [33]) of 0.39 µg/mL, an MIC (Staphylococcus aureus [34]) of 0.39 µg/mL and an MIC (Escherichia coli [35]) of 3.12 µg/mL. The Activity (Cell membrane) was “Active”.
